ChEMBL document CHEMBL5096211, “Fluorophenylalkyl-substituted cyanoguanidine derivatives as bacteria-selective MATE transporter inhibitors for the treatment of antibiotic-resistant infections” (Bioorg Med Chem, 2022)
pIC50: −log10 of the molar value. ≈ marks a conversion by molar mass, not a printed value.

Legend:
[1] = target: T1, Multidrug resistance protein HmrM (Haemophilus influenzae) (UniProt P45272); assay: Inhibition of Haemophilus influenza HmrM transporter expressed in Escherichia coli KAM32 assessed as inhibition of bacterial resistance to norfloxacin by measuring norfloxacin MIC at 100 uM incubated for 18 hrs by microbroth dilution method
T1 sequence (whole entry): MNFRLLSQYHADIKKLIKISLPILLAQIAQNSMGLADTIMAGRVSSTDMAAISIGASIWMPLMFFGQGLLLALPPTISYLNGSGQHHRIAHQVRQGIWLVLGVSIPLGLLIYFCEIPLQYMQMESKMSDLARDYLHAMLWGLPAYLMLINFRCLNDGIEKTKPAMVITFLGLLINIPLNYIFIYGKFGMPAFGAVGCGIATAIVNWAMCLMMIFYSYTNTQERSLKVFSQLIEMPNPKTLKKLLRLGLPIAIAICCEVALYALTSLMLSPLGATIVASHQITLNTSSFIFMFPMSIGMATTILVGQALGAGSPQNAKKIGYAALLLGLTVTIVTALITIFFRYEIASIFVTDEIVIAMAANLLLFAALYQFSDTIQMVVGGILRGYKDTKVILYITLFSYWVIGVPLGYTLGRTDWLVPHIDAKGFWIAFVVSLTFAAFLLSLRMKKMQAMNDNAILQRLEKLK

[2] = target: T1, Multidrug resistance protein HmrM (Haemophilus influenzae); assay: Inhibition of Haemophilus influenza HmrM transporter expressed in Escherichia coli KAM32 assessed as inhibition of bacterial resistance to norfloxacin by measuring reduction in bacterial growth at 100 uM incubated for 18 hrs by microbroth dilution method
[3] = target: T2, Multidrug and toxin extrusion protein 1 (Homo sapiens, UniProt Q96FL8); assay: Inhibition of human MATE1; assay type: toxicity
T2 sequence (Q96FL8 whole entry): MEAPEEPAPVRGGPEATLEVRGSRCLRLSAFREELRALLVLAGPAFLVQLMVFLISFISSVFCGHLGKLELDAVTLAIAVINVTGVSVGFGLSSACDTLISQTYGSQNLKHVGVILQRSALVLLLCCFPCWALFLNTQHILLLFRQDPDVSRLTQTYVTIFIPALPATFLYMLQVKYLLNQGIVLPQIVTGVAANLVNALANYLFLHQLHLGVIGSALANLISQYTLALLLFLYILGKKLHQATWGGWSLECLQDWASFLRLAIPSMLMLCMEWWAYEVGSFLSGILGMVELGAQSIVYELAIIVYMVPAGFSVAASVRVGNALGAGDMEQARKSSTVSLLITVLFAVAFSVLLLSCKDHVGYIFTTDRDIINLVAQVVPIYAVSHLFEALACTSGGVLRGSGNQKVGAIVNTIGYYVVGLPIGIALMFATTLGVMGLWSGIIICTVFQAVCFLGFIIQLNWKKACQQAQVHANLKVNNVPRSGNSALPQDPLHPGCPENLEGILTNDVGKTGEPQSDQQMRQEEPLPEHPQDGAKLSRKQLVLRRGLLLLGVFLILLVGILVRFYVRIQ

[4] = target: T3, Multidrug resistance protein MdtK (Escherichia coli (strain K12)) (UniProt P37340); assay: Inhibition of Escherichia coli MdtK expressed in Escherichia coli KAM32 assessed as inhibition of bacterial growth incubated for 18 hrs by microbroth dilution method
T3 sequence (whole entry): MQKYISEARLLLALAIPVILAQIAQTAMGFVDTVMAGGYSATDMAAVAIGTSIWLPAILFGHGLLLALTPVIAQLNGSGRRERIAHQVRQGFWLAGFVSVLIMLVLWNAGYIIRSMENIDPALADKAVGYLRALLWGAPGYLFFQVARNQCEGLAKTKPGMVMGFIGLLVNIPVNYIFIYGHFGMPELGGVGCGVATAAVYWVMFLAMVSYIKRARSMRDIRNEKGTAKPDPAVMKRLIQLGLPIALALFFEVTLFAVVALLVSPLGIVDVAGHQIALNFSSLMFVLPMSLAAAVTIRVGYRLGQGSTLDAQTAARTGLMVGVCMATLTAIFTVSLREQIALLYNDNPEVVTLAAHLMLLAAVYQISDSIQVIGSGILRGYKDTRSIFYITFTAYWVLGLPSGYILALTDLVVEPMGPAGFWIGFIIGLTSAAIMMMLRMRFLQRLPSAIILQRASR

[5] = system: Bacteroides thetaiotaomicron; assay: Inhibition of Bacteroides thetaiotaomicron BexA expressed in Escherichia coli KAM32 assessed as inhibition of bacterial growth incubated for 18 hrs by microbroth dilution method
[6] = system: HEK293; assay: Cytotoxicity against human HEK293 cells assessed as reduction in cell viability upto 300 uM incubated for 24 hrs by MTT assay; assay type: toxicity, cell-based; settings: hek293, 24 h

CN/C(=N\C#N)NCCSCc1cccc(C(F)(F)F)c1
MIC [1]: 0.048 µg/mL (≈ 0.152 µM)
Efficacy [2]: 33%

CN/C(=N\C#N)NCCSCc1cccc(OC)c1
MIC [1]: 0.04 µg/mL (≈ 0.144 µM)
Efficacy [2]: 50%

CN/C(=N\C#N)NCCSCc1cccc(F)c1
pIC50 [3]: < 4.00
MIC [1]: 0.032 µg/mL (≈ 0.12 µM)
Efficacy [2]: 67%

Cc1[nH]cnc1CSCCNc1ncccn1
pIC50 [3]: 5.70

CN/C(=N\C#N)NCCSCCc1cccc(F)c1
Efficacy [4]: 57%
MIC [1]: 0.028 µg/mL (≈ 0.0999 µM)
Efficacy [5]: 0%
Efficacy [2]: 75%

CS/C(=N\C#N)NCCSCc1cccc(F)c1
MIC [1]: 0.032 µg/mL (≈ 0.113 µM)
Efficacy [2]: 67%

CN/C(=N\C#N)NCCc1cccc(F)c1
MIC [1]: 0.056 µg/mL (≈ 0.254 µM)
Efficacy [2]: 17%

CN/C(=N\C#N)NCCSCc1ccccc1
pIC50 [3]: < 4.00
MIC [1]: 0.056 µg/mL (≈ 0.225 µM)
Efficacy [2]: 17%

Fc1cccc(CSCCNc2ncccn2)c1
MIC [1]: 0.056 µg/mL (≈ 0.213 µM)
Efficacy [2]: 17%

CN/C(=N\C#N)NCCSCc1ccccc1F
MIC [1]: 0.04 µg/mL (≈ 0.15 µM)
Efficacy [2]: 50%

CN/C(=N\C#N)NCCOCc1cccc(F)c1
MIC [1]: 0.056 µg/mL (≈ 0.224 µM)
Efficacy [2]: 17%

NCCSCc1cccc(F)c1
MIC [1]: 0.04 µg/mL (≈ 0.216 µM)
Efficacy [2]: 50%

CN/C(=N\C#N)NCCSCc1ccc(F)c(F)c1
MIC [1]: 0.048 µg/mL (≈ 0.169 µM)
Efficacy [2]: 33%

CN/C(=N\C#N)NCCSCc1cccc([N+](=O)[O-])c1
MIC [1]: 0.032 µg/mL (≈ 0.109 µM)
Efficacy [2]: 67%

CN/C(=N\C#N)NCCCCc1cccc(F)c1
Efficacy [4]: 57%
MIC [1]: 0.024 µg/mL (≈ 0.0967 µM)
Efficacy [5]: 0%
Efficacy [2]: 83%

CN/C(=N\C#N)NCCSCc1cc(F)cc(F)c1
MIC [1]: 0.04 µg/mL (≈ 0.141 µM)
Efficacy [2]: 50%

CN/C(=N\C#N)NCCSCc1ccc(F)cc1
MIC [1]: 0.048 µg/mL (≈ 0.18 µM)
Efficacy [2]: 33%

CN/C(=N\C#N)NCCCCCc1cccc(F)c1
pIC50 [3]: < 4.00
Efficacy [4]: 86%
Activity [6]: Non-Toxic
MIC [1]: 0.02 µg/mL (≈ 0.0762 µM)
Efficacy [5]: 0%
Efficacy [2]: 92%

CN/C(=N\CCSCc1nc[nH]c1C)NC#N
MIC [1]: 0.056 µg/mL (≈ 0.222 µM)
Efficacy [2]: 17%

CN/C(=N\C#N)NCCCc1cccc(F)c1
MIC [1]: 0.04 µg/mL (≈ 0.171 µM)
Efficacy [2]: 50%

N=C(N)NCCSCc1cccc(F)c1
MIC [1]: 0.048 µg/mL (≈ 0.211 µM)
Efficacy [2]: 33%
